Measurements reported in US20200405697A1, “Antitumor Agent” (Taiho Pharmaceutical Co., Ltd, priority 2017, published 2020).

Tests used:
[1] = test system: CFPAC-1 (Human pancreatic cancer cell line); experiment: Effect of combination of sulfonamide compound and other antitumor agent (CellTiter-Glo, combination index): CFPAC-1;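 also: cells exposed to both agents together for 3 days, viability read by luminescence, normalized to vehicle-treated control wells, mean of triplicate wells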
Description: (§1) Each cell line was seeded at 90 L/well to a 96-well culture plate (Thermo Fisher Scientific, Inc.) according to the above tables. The cell-seeded plate was cultured in an incubator set to 37° C. and 500 CO2. On the day following seeding, varying concentrations of the sulfonamide compound and the other antitumor agent were added in combination to the cells. […] The serial dilutions of each compound, or DW was added at 5μL/well to the plate such that each compound and DW, or the sulfonamide compound and the other antitumor agent were combined. […] The plate after the addition was cultured at 37° C. for 3 days under 5% CO2 conditions.
(§2) Three days later, CellTiter-Glo(R) 2.0 Reagent (Promega Corporation) was added at 100 μL/well, and the amount of luminescence was measured using a plate reader EnSpire(R) Multimode Plate Reader (PerkinElmer Co., Ltd.).
(§3) An average value from 3 wells was calculated as to each drug condition from the obtained data, and cell survival rate normalized against control wells supplemented with the vehicle (DW) was calculated. A Fa (fractional inhibition) value was calculated by subtracting the cell survival rate from 1.

GB-1 cells = experiment: Cell proliferation inhibitory effect on human cancer cell lines: GB-1; format: cell-based; settings: GB-1, Glioblastoma, DMEM + 10% FBS, 3000 cell/well
Description: Human derived breast cancer cell line HCC 1806 cells (American Type Culture Collection, ATCC) were daily passaged at a cell density not exceeding 80% in ATCC recommended Roswell Park Memorial Institute medium (RPMI-1640) containing 10% fetal bovine serum (FBS). In order to start the test of cell proliferation inhibitory activity, HCC 1806 cells were suspended in the above medium, after seeing at 180 μL in each well of a 96-well flat bottom plate so that the number of cells per well was 2,000, the cells were cultured at 37° C. for 1 day in an incubator containing 5% carbon dioxide gas.
On the next day, the Example compound was dissolved in DMSO, and 20 μL of a drug additive solution diluted serially with distilled water to 10 times of the final concentration was added to each well of the culture plate of the cells, and the cells were cultured at 37° C. for 72 hours in an incubator containing 5% carbon dioxide gas. After culturing for 72 hours, 20 μL of glutaraldehyde was added to each well and allowed to stand for 30 minutes, then the plate was washed 10 times with water and was dried. 100 μL of a stain solution (0.05% crystal violet in a 20% methanol solution) was added to each well and allowed to stand for 30 minutes, then the plate was washed 10 times with water and was dried. 100 μL of an extract solution (0.1 N NaH2PO4: 100% ethanol=1:1) was added to each well and mixed, and the mixture was measured at a wavelength of 540 nm using a plate reader (MTP-450 manufactured by Corona Electric Co., Ltd.).
The growth inhibition rate was calculated from the following formula, and the concentration (IC50 (μM)) of a compound inhibiting 50% was determined.
According to the method of Test Example 2, the cell proliferation inhibitory effect on various cancer cell lines as described in Table 24 was evaluated. […]

[2] = test system: MV-4-11 (Human blood cancer cell line); experiment: Effect of combination of sulfonamide compound and other antitumor agent (CellTiter-Glo, combination index): MV-4-11
Description: as §1, §2, §3

[3] = Example Compound 1 225 nM + Prexasertib 1.89 nM, molar ratio 1:0.008406
[4] = Example Compound 1 338 nM + AZD6738 925 nM, molar ratio 1:2.738
[5] = Example Compound 1 338 nM + Prexasertib 2.84 nM, molar ratio 1:0.008406
[6] = Example Compound 1 338 nM + SCH900776 253 nM, molar ratio 1:0.7487
[7] = Example Compound 1 507 nM + AZD6738 1390 nM, molar ratio 1:2.738
[8] = Example Compound 1 507 nM + Prexasertib 4.26 nM, molar ratio 1:0.008406
[9] = Example Compound 1 507 nM + SCH900776 380 nM, molar ratio 1:0.7487
[10] = Example Compound 1 760 nM + AZD6738 2080 nM, molar ratio 1:2.738
[11] = Example Compound 1 760 nM + Gemcitabine 5.28 nM, molar ratio 1:0.006950
[12] = Example Compound 1 760 nM + SCH900776 569 nM, molar ratio 1:0.7487
[13] = Example Compound 1 121 nM + Cytarabine 116 nM, molar ratio 1:0.9614
[14] = Example Compound 1 121 nM + Guadecitabine 11.9 nM, molar ratio 1:0.09807
[15] = Example Compound 1 182 nM + Cytarabine 175 nM, molar ratio 1:0.9614
[16] = Example Compound 1 182 nM + Decitabine 50.2 nM, molar ratio 1:0.2758
[17] = Example Compound 1 182 nM + Fludarabine nucleoside 4110 nM, molar ratio 1:22.56
[18] = Example Compound 1 182 nM + Guadecitabine 17.8 nM, molar ratio 1:0.09807
[19] = Example Compound 1 273 nM + Decitabine 75.3 nM, molar ratio 1:0.2758
[20] = Example Compound 1 273 nM + Fludarabine nucleoside 6160 nM, molar ratio 1:22.56
[21] = Example Compound 1 273 nM + Guadecitabine 26.8 nM, molar ratio 1:0.09807
[22] = Example Compound 1 409 nM + Cytarabine 393 nM, molar ratio 1:0.9614
[23] = Example Compound 1 409 nM + Decitabine 113 nM, molar ratio 1:0.2758
[24] = Example Compound 1 409 nM + Guadecitabine 40.1 nM, molar ratio 1:0.09807
[25] = Example Compound 1 613 nM + Decitabine 169 nM, molar ratio 1:0.2758
[26] = Example Compound 1 613 nM + Decitabine 589 nM, molar ratio 1:0.2758
[27] = Example Compound 1 613 nM + Guadecitabine 60.1 nM, molar ratio 1:0.09807
[28] = Example Compound 1 920 nM + Decitabine 254 nM, molar ratio 1:0.2758
[29] = Example Compound 1 920 nM + Guadecitabine […], molar ratio 1:0.09807

## Cc1ccc(F)c([C@@H](C)[C@H](NS(=O)(=O)c2ccc(Br)cc2C(N)=O)c2n[nH]c(=O)o2)c1C [Example 1, 5-bromo-2-(N-((1 S,2R)-2-(6-fluoro-2,3-dimethylphenyl)-1-(5-oxo-4,5-dihydro-1,3,4-oxadiazol-2-yl)propyl)sulfamoyl)benzamide]
[1]; [3]
  CI value: 0.825
  Fa value: 0.2319
[1]; [4]
  CI value: 0.484
  Fa value: 0.4791
[1]; [5]
  CI value: 0.580
  Fa value: 0.6056
[1]; [6]
  CI value: 0.496
  Fa value: 0.4162
[1]; [7]
  CI value: 0.356
  Fa value: 0.7266
[1]; [8]
  CI value: 0.633
  Fa value: 0.7542
[1]; [9]
  CI value: 0.369
  Fa value: 0.6944
[1]; [10]
  CI value: 0.427
  Fa value: 0.7884
[1]; [11]
  CI value: 0.790
  Fa value: 0.6416
[1]; [12]
  CI value: 0.472
  Fa value: 0.7479
GB-1 cells
  IC50: 1560 nM
[2]; [13]
  CI value: 0.683
  Fa value: 0.1611
[2]; [14]
  CI value: 0.706
  Fa value: 0.2186
[2]; [15]
  CI value: 0.603
  Fa value: 0.4508
[2]; [16]
  CI value: 0.643
  Fa value: 0.3873
[2]; [17]
  CI value: 0.783
  Fa value: 0.1868
[2]; [18]
  CI value: 0.741
  Fa value: 0.3225
[2]; [19]
  CI value: 0.680
  Fa value: 0.5342
[2]; [20]
  CI value: 0.592
  Fa value: 0.8795
[2]; [21]
  CI value: 0.705
  Fa value: 0.5192
[2]; [22]
  CI value: 0.538
  Fa value: 0.9443
[2]; [23]
  CI value: 0.667
  Fa value: 0.7570
[2]; [24]
  CI value: 0.658
  Fa value: 0.7788
[2]; [25]
  CI value: 0.672
  Fa value: 0.9292
[2]; [26]
  CI value: 0.419
  Fa value: 0.9960
[2]; [27]
  CI value: 0.671
  Fa value: 0.9347
[2]; [28]
  CI value: 0.666
  Fa value: 0.9900
[2]; [29]
  CI value: 0.639
  Fa value: 0.9921
